Reference: article PMC7031696 (Cell chemical biology, 2019)
Where two headings read alike, the source gives them in different places.

What was measured:
[1] = tested on: Plasmodium falciparum 3D7-A10 parasites; test: Stage specificity assay (8-h exposure of synchronized stages, IC50^8h); format: cell-based; conditions: for IC50: Plasmodium falciparum
[2] = tested on: asynchronous 3D7-A10 parasite cultures; test: Standard 72-h exposure asexual blood stage susceptibility assay (IC50^72h); format: cell-based, Plasmodium falciparum; conditions: Plasmodium falciparum, 3D7, 72 h, read-out: Overall (72hr assay) Mean IC50 (IC50^72h)
[3] = tested on: 3D7-MR4 trophozoite parasite-infected RBCs; test: Metabolomic profiling (hydrophilic metabolite changes, UHPLC-MS); format: cell-based, Plasmodium falciparum

Cl.c1ccc2c(NCCCCCCNc3c4c(nc5ccccc35)CCCC4)c3c(nc2c1)CCCC3 [MMV019555]
Ratio lowest IC50 8hr/IC50 72hr ([1]; 3D7-A10): 2.4 | IC50 ([1]; 3D7, read-out: Early rings Mean IC50 (IC50^8h)): 755 nM | IC50 ([1]; 3D7, read-out: Early trophozoites Mean IC50 (IC50^8h)): 81.4 nM | IC50 ([1]; 3D7, read-out: Late rings Mean IC50 (IC50^8h)): 788 nM | IC50 ([1]; 3D7, read-out: Late trophozoites Mean IC50 (IC50^8h)): 110 nM | IC50 ([1]; 3D7, read-out: Schizonts Mean IC50 (IC50^8h)): 349 nM | Stage of peak activity (Figure 6) ([1]; period when the parasite was most susceptible (lowest IC50^8h)): trophozoites | Peak Activity (Table S1) ([1]; stage(s) with the lowest IC50^8h): Trophs | IC50 [2]: 33.3 nM | peptide levels (hemoglobin catabolism signature) ([3]; 10 × IC50^72h, 2.5 hr, trophozoites): decreased peptide levels | Log2(fold changes) 3-phosphoglycerate ([3]; metabolite 3-phosphoglycerate, log2 fold change): -0.7704 | Log2(fold changes) 4-Pyridoxic acid ([3]; metabolite 4-Pyridoxic acid, log2 fold change): -0.0064 | Log2(fold changes) 4-aminobutyrate ([3]; metabolite 4-aminobutyrate, log2 fold change): -0.0746 | Log2(fold changes) 4-phosphopantetheine ([3]; metabolite 4-phosphopantetheine, log2 fold change): 0.0000 | Log2(fold changes) 4-phosphopantothenate ([3]; metabolite 4-phosphopantothenate, log2 fold change): -0.0563 | Log2(fold changes) 5-aminopentanoic acid ([3]; metabolite 5-aminopentanoic acid, log2 fold change): 0.0000 | Log2(fold changes) 5-methyl-THF ([3]; metabolite 5-methyl-THF, log2 fold change): 0.0000 | Log2(fold changes) 5-phosphoribosyl-1-pyrophosphate ([3]; metabolite 5-phosphoribosyl-1-pyrophosphate, log2 fold change): 0.0000 | Log2(fold changes) 6-phospho-D-gluconate ([3]; metabolite 6-phospho-D-gluconate, log2 fold change): -0.1925 | Log2(fold change) HVDD ([3]; metabolite HVDD): -3.3896 | Log2(fold change) Hydroxyisocaproic acid ([3]; metabolite Hydroxyisocaproic acid): 0.0000 | Log2(fold change) IDP ([3]; metabolite IDP): 0.0000 | Log2(fold change) IMP ([3]; metabolite IMP): 0.2158 | Log2(fold change) Inositol ([3]; metabolite Inositol): 0.0000 | Log2(fold change) Isopentyl-PP ([3]; metabolite Isopentyl-PP): 0.0000 | Log2(fold change) L-arginino-succinate ([3]; metabolite L-arginino-succinate): 2.1877 | Log2(fold change) LD ([3]; metabolite LD): -0.1309 | Log2(fold change) Myristoyl/tetradecanoyl-CoA ([3]; metabolite Myristoyl/tetradecanoyl-CoA): 0.0000 | Log2(fold change) N-Acetyl-L-alanine ([3]; metabolite N-Acetyl-L-alanine): -0.6973 | Log2(fold change) N-acetyl-L-ornithine ([3]; metabolite N-acetyl-L-ornithine): -2.1230 | Log2(fold change) N-acetyl-glucosamine-1/6-phosphate ([3]; metabolite N-acetyl-glucosamine-1/6-phosphate): -0.2838 | Log2(fold change) N-acetyl-glutamate ([3]; metabolite N-acetyl-glutamate): 0.3598 | Log2(fold change) N-acetyl-glutamine ([3]; metabolite N-acetyl-glutamine): -3.0977 | Log2(fold change) N-carbamoyl-L-aspartate ([3]; metabolite N-carbamoyl-L-aspartate): -1.7500 | Log2(fold change) NAD+ ([3]; metabolite NAD+): -0.0354 | Log2(fold change) NADH ([3]; metabolite NADH): 0.0000 | Log2(fold change) NADP+ ([3]; metabolite NADP+): 0.1571 | Log2(fold change) NADPH ([3]; metabolite NADPH): 0.0000 | Log2(fold change) O-acetyl-L-serine ([3]; metabolite O-acetyl-L-serine): 0.0000 | Log2(fold change) Octoluse 8/1P ([3]; metabolite Octoluse 8/1P): 0.0000 | Log2(fold change) Octoluse Bisphosphate ([3]; metabolite Octoluse Bisphosphate): 0.2948 | Log2(fold change) PD ([3]; metabolite PD): -3.7912 | Log2(fold change) PE ([3]; metabolite PE): -2.1499 | Log2(fold change) PEE ([3]; metabolite PEE): -2.7511 | Log2(fold change) PEEK ([3]; metabolite PEEK): -0.8070 | Log2(fold change) PVNF ([3]; metabolite PVNF): -5.1804 | Log2(fold change) Pyroglutamic acid ([3]; metabolite Pyroglutamic acid): 0.0000 | Log2(fold change) Pyrophosphate ([3]; metabolite Pyrophosphate): 0.0000 | Log2(fold change) Ribose-5-phosphate ([3]; metabolite Ribose-5-phosphate): 0.0000 | Log2(fold change) S-adenosyl-L-homocysteine ([3]; metabolite S-adenosyl-L-homocysteine): -0.6013 | Log2(fold change) S-adenosyl-L-methioninamine ([3]; metabolite S-adenosyl-L-methioninamine): 0.0000 | Log2(fold change) S-adenosyl-L-methionine ([3]; metabolite S-adenosyl-L-methionine): 0.0000 | Log2(fold change) S-methyl-5'-thioadenosine ([3]; metabolite S-methyl-5'-thioadenosine): 0.0000 | Log2(fold change) SD ([3]; metabolite SD): -1.1672 | Log2(fold change) SDL ([3]; metabolite SDL): -3.6117 | Log2(fold change) SID ([3]; metabolite SID): -6.9124 | Log2(fold change) Sedoheptulose bisphosphate ([3]; metabolite Sedoheptulose bisphosphate): 0.7315 | Log2(fold change) Thiamine pyrophosphate ([3]; metabolite Thiamine pyrophosphate): 0.0000 | Log2(fold changes) UDP-D-glucose ([3]; metabolite UDP-D-glucose, log2 fold change): 0.2602 | Log2(fold changes) UDP-D-glucuronate ([3]; metabolite UDP-D-glucuronate, log2 fold change): 0.1434 | Log2(fold changes) UDP-N-acetyl-glucosamine ([3]; metabolite UDP-N-acetyl-glucosamine, log2 fold change): 0.1146 | Log2(fold changes) UDP ([3]; metabolite UDP, log2 fold change): 0.8739 | Log2(fold changes) UMP ([3]; metabolite UMP, log2 fold change): -0.0547 | Log2(fold changes) UTP ([3]; metabolite UTP, log2 fold change): -0.1611 | Log2(fold change) hydroxyphenylpyruvate ([3]; metabolite hydroxyphenylpyruvate): 0.0000 | Log2(fold change) hydroxyproline/Aminolevulinate ([3]; metabolite hydroxyproline/Aminolevulinate): 0.0631 | Log2(fold change) hypoxanthine ([3]; metabolite hypoxanthine): 0.0000 | Log2(fold change) indole ([3]; metabolite indole): 0.0000 | Log2(fold change) inosine ([3]; metabolite inosine): -0.4951 | Log2(fold change) isoleucine ([3]; metabolite isoleucine): 0.1119 | Log2(fold change) lactate ([3]; metabolite lactate): 0.0000 | Log2(fold change) leucine ([3]; metabolite leucine): -0.0578 | Log2(fold change) lysine ([3]; metabolite lysine): 0.0000 | Log2(fold change) malate ([3]; metabolite malate): -0.8281 | Log2(fold change) maleic acid ([3]; metabolite maleic acid): -0.8184 | Log2(fold change) methionine ([3]; metabolite methionine): 0.4693 | Log2(fold change) myo-inositol ([3]; metabolite myo-inositol): 0.0000 | Log2(fold change) nicotinamide mononucleotide ([3]; metabolite nicotinamide mononucleotide): 0.0000 | Log2(fold change) nicotinate ([3]; metabolite nicotinate): -0.1129 | Log2(fold change) ornithine ([3]; metabolite ornithine): 0.0000 | Log2(fold change) orotate ([3]; metabolite orotate): -0.7791 | Log2(fold change) orotidine-5'-phosphate ([3]; metabolite orotidine-5'-phosphate): -1.4071 | Log2(fold change) oxaloacetate ([3]; metabolite oxaloacetate): 0.0000 | Log2(fold change) p-aminobenzoate ([3]; metabolite p-aminobenzoate): 0.0000 | Log2(fold change) p-hydroxybenzoate ([3]; metabolite p-hydroxybenzoate): 0.0000 | Log2(fold change) pantothenate ([3]; metabolite pantothenate): 0.0969 | Log2(fold change) phenylalanine ([3]; metabolite phenylalanine): -0.1076 | Log2(fold change) phenylpyruvate ([3]; metabolite phenylpyruvate): 0.0000 | Log2(fold change) phosphoenolpyruvate ([3]; metabolite phosphoenolpyruvate): -0.6196 | Log2(fold change) prephenate ([3]; metabolite prephenate): 0.0000 | Log2(fold change) proline ([3]; metabolite proline): -0.3102 | Log2(fold change) pyridoxine ([3]; metabolite pyridoxine): 0.0000 | Log2(fold change) pyruvate ([3]; metabolite pyruvate): -0.3424 | Log2(fold change) riboflavin ([3]; metabolite riboflavin): 0.1087 | Log2(fold change) ribose ([3]; metabolite ribose): 0.0000 | Log2(fold change) ribose-phosphate ([3]; metabolite ribose-phosphate): -0.8253 | Log2(fold change) ribulose-5-phosphate ([3]; metabolite ribulose-5-phosphate): -0.7229 | Log2(fold change) serine ([3]; metabolite serine): 0.0219 | Log2(fold change) sn-glycerol-3-phosphate ([3]; metabolite sn-glycerol-3-phosphate): -0.8632 | Log2(fold change) succinate/Methylmalonic acid ([3]; metabolite succinate/Methylmalonic acid): 0.2169 | Log2(fold change) succinyl-CoA/methylmalonyl-CoA ([3]; metabolite succinyl-CoA/methylmalonyl-CoA): 0.0000 | Log2(fold change) taurine ([3]; metabolite taurine): 0.0000 | Log2(fold change) thiamine ([3]; metabolite thiamine): -0.8248 | Log2(fold change) threonine/homoserine ([3]; metabolite threonine/homoserine): -0.3688 | Log2(fold change) thymidine ([3]; metabolite thymidine): 0.0000 | Log2(fold changes) thymine ([3]; metabolite thymine, log2 fold change): 0.0000 | Log2(fold changes) trehalose-6-Phosphate ([3]; metabolite trehalose-6-Phosphate, log2 fold change): 0.0000 | Log2(fold changes) tryptophan ([3]; metabolite tryptophan, log2 fold change): -0.0448 | Log2(fold changes) tyrosine ([3]; metabolite tyrosine, log2 fold change): 0.2358 | Log2(fold changes) uridine ([3]; metabolite uridine, log2 fold change): 0.0000
